Laboratory results taken from US6673768B1, “Transgenic animal models for cardiac hypertrophy and methods of use thereof (treating)” (Board of Regents, The University of Texas System, priority 1997, dated 2004).

Tests used:
[1] = tested on: neonatal rat cardiomyocytes; experiment: AngII- and PE-induced hypertrophy of primary cardiomyocytes (anti-α-actinin staining, cell size and sarcomeric assembly); assay type: cell-based; conditions: 72 hr; AngII 10 nM or PE 10 μM
Experimental: To visualize primary cardiomyocytes and their sarcomeric organization, anti-α-actinin mouse monoclonal antibody was used (Sigma). […] Cells were washed in 1×phosphate-buffered saline (PBS), fixed in 3.7% paraformaldehyde for 5 minutes, washed three times with 1×PBS and then pre-blocked in 1×PBS containing 2% horse serum, 2% BSA, and 0.1% non-ionic detergent NP40 for 30 minutes. Anti-α-actinin antibody was added at a dilution of 1:800 in fresh preblock solution and incubated for an additional 30 minutes. Subsequently, the cells were washed three times in 1×PBS with 0.1% NP40. Anti-mouse TRITC-conjugated secondary antibody was then added at a dilution of 1:400 for 30 minutes in pre-block solution and the cells were again washed three times in 1×PBS containing 0.1% NP40. Nuclear staining for DNA was performed with 0.5 μg/ml of bisbenzimide in PBS for 15 minutes followed by three rinses with PBS.

[2] = tested on: atrial natriuretic factor (ANF) mRNA; experiment: ANF mRNA dot blot in primary cardiomyocytes treated with AngII; assay type: cell-based, rat; conditions: AngII exposure
Experimental: A-F, Primary rat cardiocytes in serum-free medium were stimulated with AngII (10 nM) or PE (10 μm) for 72 hours. Cells were then fixed and stained with anti-α-actinin antibody to reveal sarcomeres and Hoechst stain to reveal nuclei. […] G, Total RNA was isolated from primary cardiocyte cultures treated with AngII in the presence or absence of CsA as in A and analyzed for expression of GAPDH and ANF transcripts by dot blot. H, Primary rat cardiomyocytes were transiently transfected with a luciferase reporter gene linked to 3 tandem copies of the NF-AT consensus binding site. Cells were then treated with AngII or PE in the presence or absence of CsA, as described above. Forty-eight hours later, cells were harvested and luciferase activity was determined.
To determine whether changes in cardiomyocyte gene expression in response to AngII were also controlled by a calcineurin-dependent signaling pathway, the expression of ANF mRNA in cardiomyocytes treated with AngII was examined in the presence and absence of CsA by a dot blot assay. […] GAPDH mRNA was measured as a control.
RNA analysis. Total RNA was collected and purified with Triazol reagent (Gibco BRL) as recommended. […]

Substance: angiotensin II [AngII, humoral factor which induces the hypertrophic response in cardiomyocytes]
- cardiomyocyte size and sarcomeric assembly after exposure to agonist [1]: dramatic increase in size and sarcomeric assembly
- increase in ANF mRNA [2]: 15 fold
